Source: patent US6515103B1 (priority 1996, dated 2003)
Where a SMILES comes first, the peptide text is derived from it. [ ]: non-standard residue; d: D form. Gla = N[C@@H](CC(C(=O)O)C(=O)O)C(=O)O

Key:
NMDA receptor = type: binding
in vitro = conditions: Frings audiogenic, mouse

SMILES	IC50 (NMDA receptor) [nM]	half-life (in vitro; brain homogenate) [min]	half-life (in vitro; tissue homogenate) [min]
CC[C@H](C)[C@H](NC(=O)[C@H](CC(C)C)NC(=O)[C@H](Cc1ccc(O)cc1)NC(=O)[C@H](CCC(N)=O)NC(=O)[C@H](CC(N)=O)NC(=O)[C@H](C)NC(=O)[C@H](CCC(N)=O)NC(=O)[C@H](CC(C)C)NC(=O)[C@H](CC(C(=O)O)C(=O)O)NC(=O)[C@H](CC(C(=O)O)C(=O)O)NC(=O)[C@H](CCC(=O)O)NC(=O)CN)C(=O)N[C@@H](CCCNC(=N)N)C(=O)N[C@@H](CC(C(=O)O)C(=O)O)C(=O)N[C@@H](CCCCN)C(=O)N[C@@H](CO)C(=O)N[C@@H](CC(N)=O)C(N)=O [A^7,Y^10] (H-GE[Gla][Gla]LQANQYLIR[Gla]KSN-NH2; N-terminus assumed)	79	–	–
CC[C@H](C)[C@H](NC(=O)[C@H](CC(C)C)NC(=O)[C@H](CCC(=O)O)NC(=O)[C@H](CCC(N)=O)NC(=O)[C@H](CC(N)=O)NC(=O)[C@H](CCC(=O)O)NC(=O)[C@H](CCC(N)=O)NC(=O)[C@H](CC(C)C)NC(=O)[C@H](CCC(=O)O)NC(=O)[C@H](CCC(=O)O)NC(=O)[C@H](CCC(=O)O)NC(=O)CN)C(=O)N[C@@H](CCCNC(=N)N)C(=O)N[C@@H](CCC(=O)O)C(=O)N[C@@H](CCCCN)C(=O)N[C@@H](CO)C(=O)N[C@@H](CC(N)=O)C(N)=O [ECon G]	–	1.6	0.425
CC[C@H](C)[C@H](NC(=O)[C@H](CC(C)C)NC(=O)[C@H](C)NC(=O)[C@H](CCC(N)=O)NC(=O)[C@H](CC(N)=O)NC(=O)[C@H](C)NC(=O)[C@H](CCC(N)=O)NC(=O)[C@H](CC(C)C)NC(=O)[C@H](CC(C(=O)O)C(=O)O)NC(=O)[C@H](CC(C(=O)O)C(=O)O)NC(=O)[C@H](CCC(=O)O)NC(=O)CN)C(N)=O [(A^7,10)1-12] (H-GE[Gla][Gla]LQANQALI-NH2; N-terminus assumed)	300	–	–
CC[C@H](C)[C@H](NC(=O)[C@H](CC(C)C)NC(=O)[C@H](C)NC(=O)[C@H](CCC(N)=O)NC(=O)[C@H](CC(N)=O)NC(=O)[C@H](C)NC(=O)[C@H](CCC(N)=O)NC(=O)[C@H](CC(C)C)NC(=O)[C@H](CC(C(=O)O)C(=O)O)NC(=O)[C@H](CC(C(=O)O)C(=O)O)NC(=O)[C@H](CCC(=O)O)NC(=O)CN)C(=O)N[C@@H](CCCNC(=N)N)C(N)=O [(A^7,10)1-13] (H-GE[Gla][Gla]LQANQALIR-NH2; N-terminus assumed)	253	–	–
CC[C@H](C)[C@H](NC(=O)[C@H](CC(C)C)NC(=O)[C@H](CC(C(=O)O)C(=O)O)NC(=O)[C@H](CCC(N)=O)NC(=O)[C@H](CC(N)=O)NC(=O)[C@H](CC(C(=O)O)C(=O)O)NC(=O)[C@H](CCC(N)=O)NC(=O)[C@H](CC(C)C)NC(=O)[C@H](CCC(=O)O)NC(=O)[C@H](CC(C(=O)O)C(=O)O)NC(=O)[C@H](CCC(=O)O)NC(=O)CN)C(=O)N[C@@H](CCCNC(=N)N)C(=O)N[C@@H](CC(C(=O)O)C(=O)O)C(=O)N[C@@H](CCCCN)C(=O)N[C@@H](CO)C(=O)N[C@@H](CC(N)=O)C(N)=O [E^4]	≥ 20000	–	–
